Assay results taken from US9562035B2, “Benzamide derivative useful as FASN inhibitors for the treatment of cancer” (Janssen Pharmaceutica NV, priority 2013, dated 2017).

Columns and labels:
A2780 ovarian cells [1] = assay: A2780 Ovarian Cell Proliferation Assay in Lipid Reduced Medium, with Palmitate (control); type: cell-based; settings: Homo sapiens, A2780; lipid reduced medium, 25 μM palmitate, 96 h, MTT; read-out: Proliferation A2780 with Palmitate pIC50 (converted)
Protocol: (§1) The biological assays described below correspond to comparative assays for ovarian cell proliferation. […] Compounds active in the absence of palmitate would not be expected to be active in the control.
(§2) 2500 cells were seeded in a 96-well clear well plate in 200 μL RPMI1640 with 10% Fetal Calf Serum (Hyclone), and incubated at 37° C., 5% CO2. Blanks were wells without cells. The next day the culture medium was aspirated and replaced by 160 μL culture medium with 10% Lipid-Reduced Serum (LRS, Hyclone). 20 μL test compound (at concentrations of 30 μM, 10 μM, 3 μM, 1 μM, 0.30 μM, 0.10 μM, 0.03 μM and 0.01 μM)/DMSO dilution followed by 20 μL palmitate-BSA solution were added to a final concentrations of 0.2% DMSO, 25 μM palmitate (Sigma, P0500, 10 mM stock solution in ethanol) 0.2% fatty-acid-free BSA, 0.25% ethanol. After 96 h incubation, an MTT assay was performed. The absorbance was measured at 544 nm on a SPECTRAMAX.
A best fit curve was fitted by a minimum sum of squares method, plotting Controlmin versus test compound concentration. From the plot, an IC50 (concentration at which 50% inhibition is achieved) was calculated. pIC50 values, presented in the Table below, were calculated as −log(IC50).
(§3) Representative compounds of the present invention were tested according to the procedure as described in Biological Example 3 above, with results as listed in Table BIO-3, below.

A2780 ovarian cells [2] = assay: A2780 Ovarian Cell Proliferation Assay in Lipid Reduced Medium, without Palmitate; type: cell-based; settings: Homo sapiens, A2780; lipid reduced medium, without palmitate, 96 h, MTT; read-out: Proliferation A2780 w/o Palmitate pIC50 (converted)
Protocol: as §1
as §2, with “ethanol-BSA” for “palmitate-BSA”, “DMSO,” for “DMSO, 25 μM palmitate (Sigma, P0500, 10 mM stock solution in ethanol)”, “incubation” for “incubation,”
(§4) Raw data generated by the instrument were normalized to % Controlmin values, which were calculated as: % Controlmin=100*(x−mLC)/(mHC−mLC)
(§5) where mLC and mHC were the means of the low control wells and high control wells on the plate, after manual exclusion of outliers. A plot of Controlmin versus test compound concentration was fitted to a 4-parameter logistic curve using a non-linear least squares regression method. From the plot, an IC50 (concentration at which 50% inhibition is achieved) was calculated. pIC50 values were calculated as −log(IC50), when IC50 is expressed in molar units.
as §3

[3] = target: T1, FASN Keto-reductase Domain (Homo sapiens, UniProt P49327); assay: Fatty Acid Synthase Keto-Reductase Domain (FASN KR) Inhibition; type: biochemical; settings: mean where tested more than once; read-out: FASN K-R Domain pIC50 (converted)
T1 construct: 10 μL hFASN enzyme (full length, 300 ng, purified in house) and 360 μM NADPH; made in house
Protocol: 10 μL assay buffer (100 mM KH2PO4 pH 7.5) was added to a 384-well clear plate (costar 3702). 0.3 μL compound (at concentrations of 30 μM, 10 μM, 3 μM, 1 μM, 0.30 μM, 0.10 μM, 0.03 μM and 0.01 μM)/DMSO, 10 μL hFASN enzyme (full length, 300 ng, purified in house) and 360 μM NADPH (except in blank) were then added. Then, 10 μL 180 mM ethyl acetoacetate (Aldrich 688983) was added, mixed and immediately thereafter, the absorbance at 340 nm (T1) by Multiscan (Labsystems) was measured. After 20 minutes incubation at room temperature the plate was measured again (T2).
The decrease in absorbance was calculated as (Absorbance before incubation T1)−(Absorbance following incubation T2).
as §4, §5

[4] = target: T2, hFASN enzyme (full length) (Homo sapiens, UniProt P49327); assay: Fatty Acid Synthase (FASN) Inhibition Scintillation Proximity Assay; type: biochemical; settings: for IC50: mean where tested more than once, ~ = standard error of pIC50 larger than 0.5; for inhibition at 10 µM: read-out: FASN % Effect @1E−05M
T2 construct: 10 μL hFASN enzyme (full length, 300 ng, purified in house); made in house
Protocol: In this assay, inhibition of FASN activity is measured using ^3H-acetyl-CoA and malonyl-CoA as substrates. ^3H-Acetyl CoA is converted to ^3H-palmitate through a series of reactions by the FASN protein, which contains 7 functional domains and carries out 7 enzymatic reactions to ultimately produce ^3H-palmitate. The assay principle is based upon the fact that ^3H-acetyl-CoA is hydrophilic and the end product, ^3H-palmitate is hydrophobic.
10 μL assay buffer (100 mM KH2PO4 pH 7.5, 1 mM DTT) (20 μL in blanks) was added to a 384-well white Opti Plate plate (Perkin Elmer). 0.9 μL test compound (at concentrations of 30 μM, 10 μM, 3 μM, 1 μM, 0.30 μM, 0.10 μM, 0.03 μM and 0.01 μM)/DMSO and 10 μL hFASN enzyme (full length, 300 ng, purified in house) or 10 μL assay buffer was added to the wells. Then 10 μL 450 μM NADPH (Sigma N7505), 18.75 μM [^3H]-acetyl-CoA (Perkin Elmer NET-290L), 150 μM malonyl-CoA (Sigma M4263) were added, mixed and incubated at room temperature for 60 minutes. The reaction was stopped by adding 20 μL Streptavidin coupled imaging beads (25 mg/ml). After incubation for 30 minutes at room temperature in the dark, the 384 well plate was centrifuged at 1500 rpm for 3 minutes and was measured after at least 24 hrs by the LEADseeker™, measuring emission using a 610±20 nm pass filter. (Bays, N. W., et al., “A simplified scintillation proximity assay for fatty acid synthase activity: development and comparison with other FAS activity assays”, J. Biomol. Screen, 2009, pp 636-642, Vol. 14(6).)
as §4, §5

T2 sequence (P49327 whole entry): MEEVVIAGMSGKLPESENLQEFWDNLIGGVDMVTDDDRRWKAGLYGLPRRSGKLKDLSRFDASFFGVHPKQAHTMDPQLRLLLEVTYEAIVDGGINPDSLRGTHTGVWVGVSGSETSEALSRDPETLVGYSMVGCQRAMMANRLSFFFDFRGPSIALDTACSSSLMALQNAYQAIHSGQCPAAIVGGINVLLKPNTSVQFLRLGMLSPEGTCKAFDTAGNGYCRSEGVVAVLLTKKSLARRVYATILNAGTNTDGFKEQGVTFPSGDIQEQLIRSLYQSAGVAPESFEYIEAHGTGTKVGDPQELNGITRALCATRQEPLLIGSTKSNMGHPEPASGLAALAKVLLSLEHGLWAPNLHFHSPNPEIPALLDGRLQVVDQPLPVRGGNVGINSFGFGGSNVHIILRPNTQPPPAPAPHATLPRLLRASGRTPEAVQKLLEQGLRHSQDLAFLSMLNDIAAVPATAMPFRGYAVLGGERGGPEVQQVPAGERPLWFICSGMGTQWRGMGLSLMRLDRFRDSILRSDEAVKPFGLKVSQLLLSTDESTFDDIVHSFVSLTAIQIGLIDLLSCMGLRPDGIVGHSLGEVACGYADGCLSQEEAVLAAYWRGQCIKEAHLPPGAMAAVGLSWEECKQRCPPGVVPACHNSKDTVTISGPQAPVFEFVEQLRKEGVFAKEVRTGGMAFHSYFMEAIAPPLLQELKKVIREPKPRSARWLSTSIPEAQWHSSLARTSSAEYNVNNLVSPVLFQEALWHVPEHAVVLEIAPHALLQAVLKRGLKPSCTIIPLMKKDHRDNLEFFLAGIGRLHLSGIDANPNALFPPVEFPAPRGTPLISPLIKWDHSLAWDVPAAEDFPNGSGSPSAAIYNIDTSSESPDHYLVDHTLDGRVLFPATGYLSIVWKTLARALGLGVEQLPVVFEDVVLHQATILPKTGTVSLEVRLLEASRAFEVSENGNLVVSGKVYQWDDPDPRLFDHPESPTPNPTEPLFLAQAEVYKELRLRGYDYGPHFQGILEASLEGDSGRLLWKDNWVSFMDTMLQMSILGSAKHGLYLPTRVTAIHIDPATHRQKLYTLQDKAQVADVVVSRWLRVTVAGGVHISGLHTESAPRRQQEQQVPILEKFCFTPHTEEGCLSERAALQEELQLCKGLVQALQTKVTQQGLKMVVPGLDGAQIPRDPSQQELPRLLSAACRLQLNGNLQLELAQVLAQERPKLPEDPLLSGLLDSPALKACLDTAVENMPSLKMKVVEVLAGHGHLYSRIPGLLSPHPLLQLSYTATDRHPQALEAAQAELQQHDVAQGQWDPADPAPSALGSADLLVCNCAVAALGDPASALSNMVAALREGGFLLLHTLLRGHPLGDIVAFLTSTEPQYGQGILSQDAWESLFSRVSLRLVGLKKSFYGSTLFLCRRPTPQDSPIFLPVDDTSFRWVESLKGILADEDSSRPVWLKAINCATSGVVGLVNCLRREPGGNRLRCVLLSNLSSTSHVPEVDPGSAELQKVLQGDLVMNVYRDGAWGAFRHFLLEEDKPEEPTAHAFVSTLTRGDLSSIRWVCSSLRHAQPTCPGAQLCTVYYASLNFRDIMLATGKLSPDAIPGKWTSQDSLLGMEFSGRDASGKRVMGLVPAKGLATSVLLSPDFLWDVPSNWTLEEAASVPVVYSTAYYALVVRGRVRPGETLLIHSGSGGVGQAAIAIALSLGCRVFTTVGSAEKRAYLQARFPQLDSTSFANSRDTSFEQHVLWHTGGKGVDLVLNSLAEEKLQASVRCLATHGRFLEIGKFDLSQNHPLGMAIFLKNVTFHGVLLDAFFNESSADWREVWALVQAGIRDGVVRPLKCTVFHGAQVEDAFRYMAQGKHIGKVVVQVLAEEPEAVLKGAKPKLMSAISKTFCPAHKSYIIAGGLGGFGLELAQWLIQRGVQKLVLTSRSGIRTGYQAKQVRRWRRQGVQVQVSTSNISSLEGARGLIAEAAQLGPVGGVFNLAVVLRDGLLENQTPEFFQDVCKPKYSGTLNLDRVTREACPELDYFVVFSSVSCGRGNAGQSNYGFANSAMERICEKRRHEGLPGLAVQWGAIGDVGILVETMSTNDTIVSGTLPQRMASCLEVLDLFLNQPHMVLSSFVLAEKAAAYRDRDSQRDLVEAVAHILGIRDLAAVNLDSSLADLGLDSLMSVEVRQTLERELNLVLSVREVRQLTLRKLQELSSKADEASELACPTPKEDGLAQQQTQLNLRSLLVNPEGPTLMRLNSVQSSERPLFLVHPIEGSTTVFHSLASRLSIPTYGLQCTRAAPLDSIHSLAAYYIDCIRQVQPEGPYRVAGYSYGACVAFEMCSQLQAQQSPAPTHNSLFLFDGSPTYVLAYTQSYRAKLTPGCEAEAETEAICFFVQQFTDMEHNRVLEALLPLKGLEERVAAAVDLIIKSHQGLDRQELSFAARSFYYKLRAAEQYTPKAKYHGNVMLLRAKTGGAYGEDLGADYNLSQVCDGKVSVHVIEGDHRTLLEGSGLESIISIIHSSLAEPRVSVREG
T1 sequence (P49327 whole entry, the tested form may be a part): as the sequence (P49327 whole entry) above

Row | IC50 (A2780 ovarian cells [1]) [nM] | IC50 (A2780 ovarian cells [2]) [nM] | IC50 [3] [nM] | IC50 [4] [nM] | inhibition at 10 µM [4] [%] | Structure (SMILES)
1 | > 10000 | 302 | 170 | 44.7 | 114 | Cc1ccc(C(=O)N2CC(c3ccc(-c4cnn(C)c4)cc3)C2)cc1NC(=O)C1CCC1 [Compound 143, N-(2-methyl-5-(3-(4-(1-methyl-1H-pyrazol-4-yl)phenyl)azetidine-1-carbonyl)phenyl)cyclobutanecarboxamide]
2 | > 10000 | 339 | 204 | 120 | 97 | Cc1ccc(C(=O)N2CCC(c3ccc(-c4cnn(C)c4)cc3)CC2)cc1NC(=O)c1ccccc1C(F)(F)F [Compound 132, N-(2-methyl-5-(4-(4-(1-methyl-1H-pyrazol-4-yl)phenyl)piperidine-1-carbonyl)phenyl)-2-(trifluoromethyl)benzamide]
3 | 7590 | 75.9 | 41.7 | 28.8 | 98 | CC(C)Nc1ccc(C(=O)Nc2cc(C(=O)N3CCC(c4ccc(-c5cnn(C)c5)cc4)CC3)ccc2Cl)cn1 [Compound 69, N-(2-chloro-5-(4-(4-(1-methyl-1H-pyrazol-4-yl)phenyl)piperidine-1-carbonyl)phenyl)-6-(isopropylamino)nicotinamide]
4 | 6760 | 162 | 77.6 | 53.7 | 97 | Cc1ccc(C(=O)N2CCC(c3ccc(-c4cnn(C)c4)cc3)CC2)cc1NC(=O)c1ccc(Cl)c(Cl)c1 [Compound 123, 3,4-dichloro-N-(2-methyl-5-(4-(4-(1-methyl-1H-pyrazol-4-yl)phenyl)piperidine-1-carbonyl)phenyl)benzamide]
5 | > 10000 | 182 | 479 | 132 | 105 | Cc1ccc(C(=O)N2CCC(c3ccc(-c4cnn(C)c4)cc3)CC2)cc1NC(=O)C1CCN(C(C)C)C1 (stereo not shown) [Compound 207, 1-isopropyl-N-(2-methyl-5-(4-(4-(1-methyl-1H-pyrazol-4-yl)phenyl)piperidine-1-carbonyl)phenyl)pyrrolidine-3-carboxamide]
6 | > 10000 | 56.2 | 28.8 | 20.9 | 99 | CC(C)Nc1ccc(C(=O)Nc2cc(C(=O)N3CC(c4ccc(-c5cnn(C)c5)cc4)C3)ccc2Cl)cn1 [Compound 65, N-(2-chloro-5-(3-(4-(1-methyl-1H-pyrazol-4-yl)phenyl)azetidine-1-carbonyl)phenyl)-6-(isopropylamino)nicotinamide]
7 | > 10000 | 263 | 309 | 126 | 102 | Cc1ccc(C(=O)N2CCC(c3ccc(-c4cnn(C)c4)cc3)CC2)cc1NC(=O)C1CCN(C2CCCC2)C1 (stereo not shown) [Compound 189, 1-cyclopentyl-N-(2-methyl-5-(4-(4-(1-methyl-1H-pyrazol-4-yl)phenyl)piperidine-1-carbonyl)phenyl)pyrrolidine-3-carboxamide]
8 | 2690 | 30.2 | 66.1 | 11.5 | 104 | Cc1ccc(C(=O)N2CCC(c3ccc(-c4cnn(C)c4)cc3)CC2)cc1NC(=O)c1ccc(N2CCN(C)CC2)nc1 [Compound #112, N-(2-Methyl-5-(4-(4-(1-methyl-1H-pyrazol-4-yl)phenyl)piperidine-1-carbonyl)phenyl)-6-(4-methylpiperazin-1-yl)nicotinamide]
9 | > 10000 | 575 | 288 | 182 | 96 | Cc1ccc(C(=O)N2CCC(c3ccc(-c4cnn(C)c4)cc3)CC2)cc1NC(=O)C(C)(C)C [Compound 87, N-(2-methyl-5-(4-(4-(1-methyl-1H-pyrazol-4-yl)phenyl)piperidine-1-carbonyl)phenyl)pivalamide]
10 | 8320 | 89.1 | 53.7 | 47.9 | 102 | Cc1ccc(C(=O)N2CCC(c3ccc(-c4cnn(C)c4)cc3)CC2)cc1NC(=O)c1ccc(C(C)C)cc1 [Compound 148, 4-isopropyl-N-(2-methyl-5-(4-(4-(1-methyl-1H-pyrazol-4-yl)phenyl)piperidine-1-carbonyl)phenyl)benzamide]
11 | > 10000 | 151 | 66.1 | 20.4 | 103 | Cc1ccc(C(=O)N2CCC(c3ccc(-c4cnn(C)c4)cc3)CC2)cc1NC(=O)C1CC1 [Compound #89, N-(2-methyl-5-(4-(4-(1-methyl-1H-pyrazol-4-yl)phenyl)piperidine-1-carbonyl)phenyl)cyclopropanecarboxamide]
12 | > 10000 | 407 | – | – | 98 | COc1ccc(C(=O)N2CC(c3ccc(-c4cnn(C)c4)cc3)C2)cc1NC(=O)c1ccc(Cl)nc1 [Compound 183, 6-chloro-N-(2-methoxy-5-(3-(4-(1-methyl-1H-pyrazol-4-yl)phenyl)azetidine-1-carbonyl)phenyl)nicotinamide]
13 | > 10000 | 162 | – | – | 99 | Cc1ccc(C(=O)N2CCC(c3ccc(-c4cnn(C)c4)cc3)CC2)cc1NC(=O)c1ccccc1 [Compound 115, N-(2-methyl-5-(4-(4-(1-methyl-1H-pyrazol-4-yl)phenyl)piperidine-1-carbonyl)phenyl)benzamide]
14 | 2750 | 389 | 288 | – | – | COc1ncccc1C(=O)Nc1cc(C(=O)N2CCC(c3ccc(-c4cnn(C)c4)cc3)CC2)ccc1C [Compound 118, 2-methoxy-N-(2-methyl-5-(4-(4-(1-methyl-1H-pyrazol-4-yl)phenyl)piperidine-1-carbonyl)phenyl)nicotinamide]
